# According to patent publication US20250019385A1, “SPIROCYCLIC ANNULATED 2-AMINO-3-CYANO THIOPHENES AND DERIVATIVES FOR THE TREATMENT OF CANCER” (Boehringer Ingelheim International GmbH, priority 2023, published 2025):
# Tested on: NCI-H727 cells
# Test: NCI-H727 CTG proliferation assay (120 h) (lung cancer, G12V)
# Assay type: cell-based
# Settings: Homo sapiens
# In short: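 Cells seeded at 500/well in RPMI + 10% FCS, left overnight, then dosed with a log dilution series in technical duplicate; untreated T0 plate read at compound addition. After 120 h at 37 °C, CellTiter-Glo luminescence read; viability as % of DMSO control, IC50 from four-parameter non-linear regression.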
row,SMILES,IC50 [nM]
1,C[C@H](Oc1nc(-c2onc3c2CCC[C@@]32CCCc3sc(N)c(C#N)c32)nc2c1cnn2[C@@H]1CCOC1)[C@@H]1CCCN1C [I-43],36
2,C[C@H](Oc1nc(-c2onc3c2CCC[C@@]32CCCc3sc(N)c(C#N)c32)nc2c1n(C)c(=O)n2[C@H]1CCOC1)[C@@H]1CCCN1C [I-9],138
3,C[C@H](Oc1nc(-c2onc3c2CCC[C@@]32CCCc3sc(N)c(C#N)c32)nc2c1n(C)c(=O)n2C12COC(C1)C2)[C@@H]1CCCN1C [I-15],14
4,CO[C@@H]1C[C@@H]([C@H](C)Oc2nc(-c3onc4c3CCC[C@@]43CCCc4sc(N)c(C#N)c43)nc3c2n(C)c(=O)n3[C@@]23COC[C@@H]2C3)N(C)C1 [I-46],2
5,CO[C@@H]1C[C@@H]([C@H](C)Oc2nc(-c3onc4c3CCC[C@@]43CCCc4sc(N)c(C#N)c43)nc3c2n(C)c(=O)n3[C@@H]2CCCOC2)N(C)C1 [I-14],6
6,C[C@H](Oc1nc(-c2onc3c2CCC[C@@]32CCCc3sc(N)c(C#N)c32)nc2c1n(C)c(=O)n2[C@@H]1CCOC1)[C@@H]1[C@H](F)CCN1C [I-4],33
7,C[C@H](Oc1nc(-c2onc3c2CCC[C@@]32CCCc3sc(N)c(C#N)c32)nc2c1n(C)c(=O)n2[C@@H]1CCOC1)[C@@H]1C[C@@H]2C[C@@H]2N1C [I-28],27

# Results, then the molecule that gave them:
row,IC50 [nM],SMILES
1,1,CO[C@@H]1C[C@@H]([C@H](C)Oc2nc(-c3noc4c3CCC[C@@]43CCCc4sc(N)c(C#N)c43)nc3c2n(C)c(=O)n3[C@@]23COC[C@@H]2C3)N(C)C1 [II-6]
2,4,C[C@H](Oc1nc(-c2noc3c2CCC[C@@]32CCCc3sc(N)c(C#N)c32)nc2c1CCO[C@]21CCOC1)[C@@H]1CCCN1C [II-9b]
3,1,CO[C@@H]1C[C@@H]([C@H](C)Oc2nc(-c3noc4c3CCC[C@@]43CCCc4sc(N)c(C#N)c43)nc3c2COC[C@]32CCOC2)N(C)C1 [II-11]

# Tested on: AsPC-1 cells
# Test: AsPC-1 CTG proliferation assay (120 h) (pancreatic cancer, G12D)
# Assay type: cell-based
# Settings: Homo sapiens, ASPC1
# In short: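 AsPC-1 cells plated overnight, then exposed to logarithmic compound dose series (duplicates) for 120 h at 37° C. Viability by CellTiter-Glo luminescence as percent of DMSO controls, with a T0 reading at compound addition; IC50 from four-parameter non-linear regression.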
row,SMILES,IC50 [nM]
1,C[C@H](Oc1nc(-c2onc3c2CCC[C@@]32CCCc3sc(N)c(C#N)c32)nc2c1cnn2[C@@H]1CCOC1)[C@@H]1CCCN1C [I-43],1390
2,C[C@H](Oc1nc(-c2onc3c2CCC[C@@]32CCCc3sc(N)c(C#N)c32)nc2c1n(C)c(=O)n2[C@H]1CCOC1)[C@@H]1CCCN1C [I-9],751
3,C[C@H](Oc1nc(-c2onc3c2CCC[C@@]32CCCc3sc(N)c(C#N)c32)nc2c1n(C)c(=O)n2C12COC(C1)C2)[C@@H]1CCCN1C [I-15],1630
4,CO[C@@H]1C[C@@H]([C@H](C)Oc2nc(-c3onc4c3CCC[C@@]43CCCc4sc(N)c(C#N)c43)nc3c2n(C)c(=O)n3[C@@]23COC[C@@H]2C3)N(C)C1 [I-46],292
5,CO[C@@H]1C[C@@H]([C@H](C)Oc2nc(-c3onc4c3CCC[C@@]43CCCc4sc(N)c(C#N)c43)nc3c2n(C)c(=O)n3[C@@H]2CCCOC2)N(C)C1 [I-14],767
6,C[C@H](Oc1nc(-c2onc3c2CCC[C@@]32CCCc3sc(N)c(C#N)c32)nc2c1n(C)c(=O)n2[C@@H]1CCOC1)[C@@H]1[C@H](F)CCN1C [I-4],2740
7,C[C@H](Oc1nc(-c2onc3c2CCC[C@@]32CCCc3sc(N)c(C#N)c32)nc2c1n(C)c(=O)n2[C@@H]1CCOC1)[C@@H]1C[C@@H]2C[C@@H]2N1C [I-28],1720

# Further lines, results first:
row,IC50 [nM],SMILES
1,265,CO[C@@H]1C[C@@H]([C@H](C)Oc2nc(-c3noc4c3CCC[C@@]43CCCc4sc(N)c(C#N)c43)nc3c2n(C)c(=O)n3[C@@]23COC[C@@H]2C3)N(C)C1 [II-6]
2,414,C[C@H](Oc1nc(-c2noc3c2CCC[C@@]32CCCc3sc(N)c(C#N)c32)nc2c1CCO[C@]21CCOC1)[C@@H]1CCCN1C [II-9b]
3,81,CO[C@@H]1C[C@@H]([C@H](C)Oc2nc(-c3noc4c3CCC[C@@]43CCCc4sc(N)c(C#N)c43)nc3c2COC[C@]32CCOC2)N(C)C1 [II-11]

# Tested on: not listed separately
# Test: Metabolic (microsomal) stability assay, human liver microsomes (HLM)
# Assay type: in vitro ADME
# Settings: 1 μM test compound, predicted clearance as percent of liver blood flow
row,SMILES,HLM QH [%]
1,C[C@H](Oc1nc(-c2onc3c2CCC[C@@]32CCCc3sc(N)c(C#N)c32)nc2c1cnn2[C@@H]1CCOC1)[C@@H]1CCCN1C [I-43],<24
2,C[C@H](Oc1nc(-c2onc3c2CCC[C@@]32CCCc3sc(N)c(C#N)c32)nc2c1n(C)c(=O)n2[C@H]1CCOC1)[C@@H]1CCCN1C [I-9],<24
3,C[C@H](Oc1nc(-c2onc3c2CCC[C@@]32CCCc3sc(N)c(C#N)c32)nc2c1n(C)c(=O)n2C12COC(C1)C2)[C@@H]1CCCN1C [I-15],<24
4,CO[C@@H]1C[C@@H]([C@H](C)Oc2nc(-c3onc4c3CCC[C@@]43CCCc4sc(N)c(C#N)c43)nc3c2n(C)c(=O)n3[C@@]23COC[C@@H]2C3)N(C)C1 [I-46],34
5,CO[C@@H]1C[C@@H]([C@H](C)Oc2nc(-c3onc4c3CCC[C@@]43CCCc4sc(N)c(C#N)c43)nc3c2n(C)c(=O)n3[C@@H]2CCCOC2)N(C)C1 [I-14],27
6,C[C@H](Oc1nc(-c2onc3c2CCC[C@@]32CCCc3sc(N)c(C#N)c32)nc2c1n(C)c(=O)n2[C@@H]1CCOC1)[C@@H]1[C@H](F)CCN1C [I-4],49
7,C[C@H](Oc1nc(-c2onc3c2CCC[C@@]32CCCc3sc(N)c(C#N)c32)nc2c1n(C)c(=O)n2[C@@H]1CCOC1)[C@@H]1C[C@@H]2C[C@@H]2N1C [I-28],52

# Next, values leading:
row,HLM QH [%],SMILES
1,52,CO[C@@H]1C[C@@H]([C@H](C)Oc2nc(-c3noc4c3CCC[C@@]43CCCc4sc(N)c(C#N)c43)nc3c2n(C)c(=O)n3[C@@]23COC[C@@H]2C3)N(C)C1 [II-6]
2,33,C[C@H](Oc1nc(-c2noc3c2CCC[C@@]32CCCc3sc(N)c(C#N)c32)nc2c1CCO[C@]21CCOC1)[C@@H]1CCCN1C [II-9b]
3,64,CO[C@@H]1C[C@@H]([C@H](C)Oc2nc(-c3noc4c3CCC[C@@]43CCCc4sc(N)c(C#N)c43)nc3c2COC[C@]32CCOC2)N(C)C1 [II-11]

# Tested on: NCI-H358 cells
# Test: NCI-H358 CTG proliferation assay (120 h) (NSCLC, G12C)
# Assay type: cell-based
# Settings: Homo sapiens
# In short: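 Cells seeded at 200 per well in RPMI-1640 with 10% FCS, left overnight, then treated with a logarithmic dose series in duplicate for 120 h. Viability measured by CellTiter-Glo luminescence as percent of DMSO controls; IC50 from four-parameter non-linear regression.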
row,SMILES,IC50 [nM]
1,C[C@H](Oc1nc(-c2onc3c2CCC[C@@]32CCCc3sc(N)c(C#N)c32)nc2c1cnn2[C@@H]1CCOC1)[C@@H]1CCCN1C [I-43],71
2,C[C@H](Oc1nc(-c2onc3c2CCC[C@@]32CCCc3sc(N)c(C#N)c32)nc2c1n(C)c(=O)n2[C@H]1CCOC1)[C@@H]1CCCN1C [I-9],52
3,C[C@H](Oc1nc(-c2onc3c2CCC[C@@]32CCCc3sc(N)c(C#N)c32)nc2c1n(C)c(=O)n2C12COC(C1)C2)[C@@H]1CCCN1C [I-15],11
4,CO[C@@H]1C[C@@H]([C@H](C)Oc2nc(-c3onc4c3CCC[C@@]43CCCc4sc(N)c(C#N)c43)nc3c2n(C)c(=O)n3[C@@]23COC[C@@H]2C3)N(C)C1 [I-46],6
5,CO[C@@H]1C[C@@H]([C@H](C)Oc2nc(-c3onc4c3CCC[C@@]43CCCc4sc(N)c(C#N)c43)nc3c2n(C)c(=O)n3[C@@H]2CCCOC2)N(C)C1 [I-14],9
6,C[C@H](Oc1nc(-c2onc3c2CCC[C@@]32CCCc3sc(N)c(C#N)c32)nc2c1n(C)c(=O)n2[C@@H]1CCOC1)[C@@H]1[C@H](F)CCN1C [I-4],107
7,C[C@H](Oc1nc(-c2onc3c2CCC[C@@]32CCCc3sc(N)c(C#N)c32)nc2c1n(C)c(=O)n2[C@@H]1CCOC1)[C@@H]1C[C@@H]2C[C@@H]2N1C [I-28],55

# More lines, now with the values ahead:
row,IC50 [nM],SMILES
1,3,CO[C@@H]1C[C@@H]([C@H](C)Oc2nc(-c3noc4c3CCC[C@@]43CCCc4sc(N)c(C#N)c43)nc3c2n(C)c(=O)n3[C@@]23COC[C@@H]2C3)N(C)C1 [II-6]
2,5,C[C@H](Oc1nc(-c2noc3c2CCC[C@@]32CCCc3sc(N)c(C#N)c32)nc2c1CCO[C@]21CCOC1)[C@@H]1CCCN1C [II-9b]
3,3,CO[C@@H]1C[C@@H]([C@H](C)Oc2nc(-c3noc4c3CCC[C@@]43CCCc4sc(N)c(C#N)c43)nc3c2COC[C@]32CCOC2)N(C)C1 [II-11]

# Tested on: SK-CO-1 cells
# Test: SK-CO-1 CTG proliferation assay (120 h) (CRC, G12V)
# Assay type: cell-based
# Settings: Homo sapiens
# In short: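 Cells seeded overnight in EMEM with 10% FCS, then given logarithmic dose series in duplicate for 120 h at 37° C. CellTiter-Glo luminescence expressed as percent of DMSO controls, with a T0 read at dosing; IC50 by four-parameter non-linear regression.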
row,SMILES,IC50 [nM]
1,C[C@H](Oc1nc(-c2onc3c2CCC[C@@]32CCCc3sc(N)c(C#N)c32)nc2c1cnn2[C@@H]1CCOC1)[C@@H]1CCCN1C [I-43],56
2,C[C@H](Oc1nc(-c2onc3c2CCC[C@@]32CCCc3sc(N)c(C#N)c32)nc2c1n(C)c(=O)n2[C@H]1CCOC1)[C@@H]1CCCN1C [I-9],75
3,C[C@H](Oc1nc(-c2onc3c2CCC[C@@]32CCCc3sc(N)c(C#N)c32)nc2c1n(C)c(=O)n2C12COC(C1)C2)[C@@H]1CCCN1C [I-15],36
4,CO[C@@H]1C[C@@H]([C@H](C)Oc2nc(-c3onc4c3CCC[C@@]43CCCc4sc(N)c(C#N)c43)nc3c2n(C)c(=O)n3[C@@]23COC[C@@H]2C3)N(C)C1 [I-46],4
5,CO[C@@H]1C[C@@H]([C@H](C)Oc2nc(-c3onc4c3CCC[C@@]43CCCc4sc(N)c(C#N)c43)nc3c2n(C)c(=O)n3[C@@H]2CCCOC2)N(C)C1 [I-14],7
6,C[C@H](Oc1nc(-c2onc3c2CCC[C@@]32CCCc3sc(N)c(C#N)c32)nc2c1n(C)c(=O)n2[C@@H]1CCOC1)[C@@H]1[C@H](F)CCN1C [I-4],77
7,C[C@H](Oc1nc(-c2onc3c2CCC[C@@]32CCCc3sc(N)c(C#N)c32)nc2c1n(C)c(=O)n2[C@@H]1CCOC1)[C@@H]1C[C@@H]2C[C@@H]2N1C [I-28],67

# Continued, values first:
row,IC50 [nM],SMILES
1,2,CO[C@@H]1C[C@@H]([C@H](C)Oc2nc(-c3noc4c3CCC[C@@]43CCCc4sc(N)c(C#N)c43)nc3c2n(C)c(=O)n3[C@@]23COC[C@@H]2C3)N(C)C1 [II-6]
2,9,C[C@H](Oc1nc(-c2noc3c2CCC[C@@]32CCCc3sc(N)c(C#N)c32)nc2c1CCO[C@]21CCOC1)[C@@H]1CCCN1C [II-9b]
3,4,CO[C@@H]1C[C@@H]([C@H](C)Oc2nc(-c3noc4c3CCC[C@@]43CCCc4sc(N)c(C#N)c43)nc3c2COC[C@]32CCOC2)N(C)C1 [II-11]
